Values after ≈ are worked out from the molar mass of the structure shown. Values joined by “and” are separate entries in the source; they are usually repeats but may differ in a detail not shown here. Equal entries are not always repeated. “Also recorded” adds a separate entry of the source. Where two headings read alike, the source gives them in different places. Values belong to the molecule of their own block, whether it stands above or below them.
Legend:
[1] = tested on: platelet aggregation triggered by AA; assay: Arachidonic acid (AA)-induced platelet aggregation, whole blood aggregometry; type: cell-based, human; conditions: for IC50: Platelet
Protocol: (§1) Blood from 20 non-smoking, young (aged from 22 to 45 years, median 27), healthy volunteers was collected by venipuncture into plastic tubes containing heparin sodium (170 IU/10 mL; Zentiva, Prague, Czech Republic). No medication had been taken by volunteers 14 days prior blood collection and no alcohol had been consumed 12 h before the blood draw.
A total of 300 µL of whole blood was diluted with the same volume of 0.9 % sodium chloride (B.Braun, Melsungen, Germany) preheated to 37 °C and incubated with 5 µL of a tested compound dissolved in DMSO (Penta, Prague, Czech Republic) at a final concentration of 0.8% for 3 min at 37 °C. Platelet aggregation was then induced by addition of collagen (Diagnostica a.s., Czech Republic), arachidonic acid (AA) or Thrombin Receptor Activating Peptide (TRAP) (Roche Holding AG, Basel, Switzerland) and monitored for 6 min. The dose of inducer was initially set to the minimal concentration which caused maximal aggregation. The second calibration was carried out by use of standards, 4-methylcatechol in the case of AA- and collagen-triggered aggregation (Sigma-Aldrich) or vorapaxar for thrombin aggregation (Selleck Chemicals GmbH, Munich, Germany). […] For comparison, also the clinically used standard ASA was employed.

[2] = tested on: MCF-7/S0.5 human breast cancer cell line; assay: CellTiter 96 AQueous One Solution Cell Proliferation Assay; type: cell-based; conditions: 48 h
Protocol: MCF-7/S0.5 human breast cancer cell line adapted to low-sera conditions (ECACC, Porton Down, Salisbury, UK) was used. Cells were maintained at 37 °C and 5% CO2 and were passaged once a week. Dulbecco’s Modified Eagle Medium/Nutrient Mixture F-12 (DMEM/F-12; Thermo Fisher, Waltham, MA, USA) supplemented with FBS Charcoal Stripped, antibiotics (penicillin/streptomycin) and insulin, according to cell provider instructions, was used as the growth medium. Cells were used in passages between 7 and 12.
Cell viability assay was performed using CellTiter 96® AQueous One Solution Cell Proliferation Assay (Promega, Madison, WI, USA). MCF-7 cells were seeded at a density of 80 × 10^3 cells per well in a 96-well plate. Cells were exposed to the compounds and incubated at 37 °C with CO2 5% for 48 h prior tetrazolium reagent [3-(4,5-dimethylthiazol-2-yl)-5-(3-carboxymethoxyphenyl)-2-(4-sulfophenyl)-2H-tetrazolium] addition (20 µL/well). DMSO at a final concentration of 0.1% (as it is not associated with toxicity) was used as a negative control (set to 100% viability), and sodium dodecyl sulfate (SDS 10%) as positive control. After incubation period CellTiter reagent was added to the cells and further incubated for 3 h. After this time, absorbance was recorded at a wavelength of 490 nm by use of a microplate reader (Hidex Oy, Turku, Finland). All samples were performed in triplicates and repeated at least three times.

[3] = parameters: method as in PMID 10956160, PMID 12065208; conditions: chronic high dose studies; cited from earlier work
[4] = tested on: rats; parameters: method as in PMID 10956160, PMID 12065208; conditions: cited from earlier work
[5] = tested on: mice; parameters: method as in PMID 10956160, PMID 12065208; conditions: cited from earlier work
[6] = tested on: platelet aggregation induced by collagen; assay: Collagen-induced platelet aggregation, whole blood aggregometry; type: cell-based, human; conditions: for IC25: Platelet, human whole blood, read-out: IC25 (Mean ± SD, μM) on Collagen-Induced Platelet Aggregation; for Effect on collagen-induced aggregation compared with ASA: comparison of 95% confidence intervals of fitted curves / IC25
Protocol: as §1, with “draw. The protocol was approved by the Ethics Committee of the Faculty of Pharmacy, Charles University on May 31, 2019.” for “draw.”
A total of 300 µL of whole blood was diluted with the same volume of 0.9 % sodium chloride (B.Braun, Melsungen, Germany) preheated to 37 °C and incubated with 5 µL of a tested compound dissolved in DMSO (Penta, Prague, Czech Republic) at a final concentration of 0.8% for 3 min at 37 °C. Platelet aggregation was then induced by addition of collagen (Diagnostica a.s., Czech Republic), arachidonic acid (AA) or Thrombin Receptor Activating Peptide (TRAP) (Roche Holding AG, Basel, Switzerland) and monitored for 6 min. The dose of inducer was initially set to the minimal concentration which caused maximal aggregation. The second calibration was carried out by use of standards, 4-methylcatechol in the case of AA- and collagen-triggered aggregation (Sigma-Aldrich) or vorapaxar for thrombin aggregation (Selleck Chemicals GmbH, Munich, Germany). The final concentrations of inducers were in the range of 0.16–2.42 µg/mL for collagen, 25–196 µM for AA and 0.8–9.8 µM for TRAP. For comparison, also the clinically used standard ASA was employed.

[7] = tested on: three different cell lines; parameters: method as in PMID 26885667; conditions: 30 μM; cited from earlier work
[8] = tested on: platelet aggregation; conditions: cited from earlier work
[9] = tested on: thrombin pathway; conditions: cited from earlier work
[10] = tested on: bacterial colonies; parameters: method as in PMID 11351422; conditions: cited from earlier work
[11] = tested on: plasmids; conditions: 50 μM, without redox-active metals; cited from earlier work
[12] = parameters: method as in PMID 25571923; conditions: humans, on average; cited from earlier work
[13] = tested on: encephalomyocarditis virus; parameters: method as in PMID 35558500; conditions: cited from earlier work; for Antiviral potency relative to catechol: lowest tested concentration 0.4 mg/mL (approximately 3 mM)
[14] = tested on: Nrf2; conditions: cited from earlier work; for Activation of Nrf2: many cell lines, effect observed even at 5 μM
[15] = tested on: anti-inflammatory activity; parameters: method as in PMID 30614688, doi:10.1016/j.jff.2019.01.047; conditions: 10 μM; cited from earlier work
[16] = tested on: hepatic HepG2; parameters: method as in PMID 35547925, PMID 30614688, doi:10.1016/j.jff.2019.01.047; conditions: cited from earlier work
[17] = tested on: human monocytic cell line THP-1; parameters: method as in PMID 35547925, PMID 30614688, doi:10.1016/j.jff.2019.01.047; conditions: cited from earlier work
[18] = human whole blood, class assigned by colour of the drawn structure, read-out: IC50 class, colour key of Figure 3
[19] = human whole blood, read-out: IC50 (Mean ± SD, μM) on Arachidonic Acid-induced Platelet Aggregation
[20] = Homo sapiens, read-out: IC50 class, colour key of Figure 3

IC50 [1, 18]: > 10 µM | IC50 [1, 19]: 13.3 ± 1.57 µM
Structure (SMILES): O=[N+]([O-])c1ccc(O)c(O)c1 [4-nitrocatechol]
Cell proliferation / viability, MCF-7/S0.5 ([2]; 10 μM): not toxic | Cell proliferation / viability, MCF-7/S0.5 ([2]; 100 μM): decreased cell proliferation

IC50 [1, 18]: > 100 µM | IC50 [1, 19]: ~61 µM
Structure (SMILES): C=CCc1ccc(OC)c(OC)c1 [4-allyl-1,2-dimethylcatechol, 4-allyl-1,2-dimethoxybenzene]
Activity towards AA-induced aggregation (in words) ([1]; human whole blood): inactive; also recorded: inactive or only weakly active | Rat plasma levels [3]: 4–46 μM and 0.66–8.25 μg/mL | Tumors [4]: elicited liver but also other tumors | Tumors [5]: elicited liver but also other tumors

IC50 [1, 18]: < 3 µM | IC50 [1, 19]: 2.59 ± 0.17 µM
Structure (SMILES): Cc1ccc(O)c(O)c1 [4-methylcatechol, reference compound]
IC25 [6]: 2.66 ± 2.21 µM | Toxicity to cell lines [7]: not toxic | Antiplatelet potency relative to acetylsalicylic acid (ASA) [8]: approximately ten times higher potency | Effect on thrombin pathway [9]: no effect

IC50 [1, 18]: < 3 µM | IC50 [1, 19]: 1.61 ± 0.17 µM
Structure (SMILES): Cc1cccc(O)c1O [3-methylcatechol]
IC25 [6]: 7.15 ± 6.41 µM

IC50 [1, 18]: < 3 µM | IC50 [1, 19]: 2.57 ± 2.24 µM
Structure (SMILES): COc1cc(C)ccc1O [2-methoxy-4-methylphenol]
IC25 [6]: 11.5 ± 9.05 µM | Effect on collagen-induced aggregation compared with ASA [6]: significantly more efficient than ASA

Structure (SMILES): COc1ccccc1OC [1,2-dimethylcatechol, 1,2-dimethoxybenzene]
IC50 ([1]; Homo sapiens, read-out: IC50 (Mean ± SD, μM) on Arachidonic Acid-induced Platelet Aggregation): ~78 µM | IC50 [1, 20]: > 100 µM | Activity towards AA-induced aggregation (in words) ([1]; human whole blood): inactive

Structure (SMILES): Nc1ccccc1O [2-aminophenol]
IC50 [1, 19]: 6.65 ± 1.06 µM

IC50 [1, 18]: > 10 µM | IC50 [1, 19]: ~21 µM
Structure (SMILES): Nc1ccc(O)c(O)c1 [4-aminocatechol]

IC50 [1, 18]: < 3 µM | IC50 [1, 19]: 2.28 ± 0.3 µM
Structure (SMILES): CC(C)c1cccc(O)c1O [3-isopropylcatechol]
IC25 [6]: 12.9 ± 21.3 µM | Cell proliferation / viability, MCF-7/S0.5 ([2]; 10 μM): not toxic | Cell proliferation / viability, MCF-7/S0.5 ([2]; 100 μM): decreased cell proliferation

IC50 [1, 19]: 7.24 ± 3.75 µM
Structure (SMILES): CC(C)(C)c1ccc(O)c(O)c1 [4-tert-butylcatechol]

IC50 [1, 18]: < 3 µM | IC50 [1, 19]: 1.74 ± 0.17 µM
Structure (SMILES): Oc1cccc(F)c1O [3-fluorocatechol]

IC50 [1, 18]: > 100 µM | IC50 [1, 19]: ~32 µM
Structure (SMILES): COc1ccc(C)c(OC)c1 [2,4-dimethoxytoluene]

Structure (SMILES): Cc1ccccc1O [o-cresol]
IC50 [1, 20]: > 10 µM | IC50 [1, 19]: 12 ± 5.55 µM | Inhibition of platelet aggregation [8]: inhibited platelet aggregation | Effect on thrombin pathway [9]: no effect

Structure (SMILES): Cc1ccccc1N [o-toluidine]
IC50 [1, 20]: > 100 µM | Activity towards AA-induced aggregation (in words) ([1]; human whole blood): inactive or only weakly active

Structure (SMILES): C=Cc1ccc(O)c(O)c1 [4-vinylcatechol]
Toxicity to cell lines [7]: not toxic

Structure (SMILES): Oc1cc(Cl)cc(Cl)c1O [3,5-dichlorocatechol]
IC50 [1, 20]: > 10 µM | IC50 [1, 19]: 13.5 ± 1.57 µM | Cell proliferation / viability, MCF-7/S0.5 ([2]; 10 μM): not toxic | Cell proliferation / viability, MCF-7/S0.5 ([2]; 100 μM): decreased cell proliferation | Formation of bacterial colonies ([10]; 10 μM): blocked the formation of bacterial colonies | Antibacterial activity [10]: Antibacterial activity was observed | DNA damage [11]: no DNA damage was observed

Structure (SMILES): Oc1ccc(Cl)cc1O [4-chlorocatechol]
IC50 [1, 19]: 3.66 ± 0.29 µM | Antibacterial activity [10]: Antibacterial activity was observed | DNA damage [11]: no DNA damage was observed

Structure (SMILES): O=S(=O)(O)Oc1ccccc1O [pyrocatechol-sulfate]
Plasma levels [12]: 12 µM

Structure (SMILES): COc1cccc(O)c1O [3-methoxycatechol]
IC50 [1, 19]: 7.92 ± 0.74 µM | Antiviral potency relative to catechol [13]: more potent

Structure (SMILES): Oc1ccccc1O [pyrocatechol]
IC50 [1, 19]: 4 ± 0.45 µM | IC50 antiviral activity [13]: 670 µg/mL (≈ 6.08 mM) | IC50 ([13]; read-out: IC50 antiviral activity): 6000 µM | Antibacterial activity [10]: Antibacterial activity was observed | Activation of Nrf2 [14]: clearly confirmed | Toxicity to cell lines [7]: not toxic

IC50 [1, 18]: < 3 µM | IC50 [1, 19]: 1.82 ± 0.21 µM
Structure (SMILES): Oc1ccc(F)cc1O [4-fluorocatechol]
IC25 [6]: 4.72 ± 0.28 µM | Effect on collagen-induced aggregation compared with ASA [6]: significantly more efficient than ASA

Structure (SMILES): Oc1cc(Cl)c(Cl)cc1O [4,5-dichlorocatechol]
IC50 [1, 19]: 3.35 ± 0.92 µM | IC25 [6]: 9.86 ± 15.1 µM | Cell proliferation / viability, MCF-7/S0.5 ([2]; 10 μM): not toxic | Cell proliferation / viability, MCF-7/S0.5 ([2]; 100 μM): decreased cell proliferation | Cell proliferation / viability, MCF-7/S0.5 ([2]; 100 μM, listed as 4,5-dichlorcatechol): blocked cell proliferation

Structure (SMILES): CC(=O)Oc1ccccc1C(=O)O [ASA, acetylsalicylic acid, reference compound]
IC25 [6]: 26.9 ± 2.25 µM

IC50 [1, 19]: 3.82 ± 0.5 µM
Structure (SMILES): Nc1cccc(O)c1O [3-aminocatechol]

IC50 [1, 18]: < 3 µM | IC50 [1, 19]: 1.29 ± 0.14 µM
Structure (SMILES): CCc1ccc(O)c(O)c1 [4-ethylcatechol]
IC25 [6]: 4.61 ± 1.16 µM | Effect on collagen-induced aggregation compared with ASA [6]: significantly more efficient than ASA | Antiviral potency relative to catechol [13]: more potent | Activation of Nrf2 [14]: clearly confirmed | Toxicity to cell lines [7]: not toxic

Structure (SMILES): CCc1ccc(O)cc1 [4-ethylphenol]
Activation of Nrf2 [14]: inactive

IC50 [1, 18]: < 3 µM | IC50 [1, 19]: 1.37 ± 0.28 µM
Structure (SMILES): CCc1ccc(O)c(OC)c1 [2-methoxy-4-ethylphenol]
IC25 [6]: 5.07 ± 4.05 µM | Activation of the Nrf2 pathway after its suppression by lipopolysaccharide ([14]; 10 μM): activated the Nrf2 pathway | Activation of the Nrf2 pathway ([14]; only concentrations higher than 650 μM were tested): activated the Nrf2 pathway | Anti-inflammatory activity [15]: anti-inflammatory activity was observed | Concentration from which mildly toxic [16]: about 660 μM and ~100 mg/L | Concentration below which toxicity was not observed [17]: ≥ 5000 µM
